These compounds were tested against HPK1 (Homo sapiens (Human), UniProt Q92918) (assay: HPK1 Kinase Binding Assay). Settings: active HPK1 (SignalChem M23-11G), tracer 222, LanthaScreen Eu-Anti GST antibody, one hour incubation at 25° C.
Sequence of HPK1 (Q92918 1-346): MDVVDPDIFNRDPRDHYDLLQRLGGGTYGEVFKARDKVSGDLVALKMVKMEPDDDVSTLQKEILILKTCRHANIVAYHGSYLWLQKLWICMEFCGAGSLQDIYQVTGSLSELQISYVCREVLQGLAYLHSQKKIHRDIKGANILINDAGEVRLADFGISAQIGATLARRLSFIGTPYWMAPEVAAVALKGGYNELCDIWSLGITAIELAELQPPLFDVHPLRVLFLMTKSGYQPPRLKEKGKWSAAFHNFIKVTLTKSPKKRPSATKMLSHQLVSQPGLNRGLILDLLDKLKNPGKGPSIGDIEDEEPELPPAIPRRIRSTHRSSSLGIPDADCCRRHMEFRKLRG
Method: Example A. HPK1 Kinase Binding Assay
A stock solution of 1 mM test compound was prepared in DMSO. The compound plate was prepared by 3-fold and 11-point serial dilutions. 0.1 μL of the compound in DMSO was transferred from the compound plate to the white 384 well polystyrene plates. The assay buffer contained 50 mM HEPES, pH 7.5, 0.01% Tween-20, 5 mM MgCl2, 0.01% BSA, and 5 mM DTT. 5 μl of 4 nM active HPK1 (SignalChem M23-11G) prepared in the buffer was added to the plate. The enzyme concentration given was based on the given stock concentration reported by the vender. 5 μl of 18 nM tracer 222 (ThermoFisher PV6121) and 4 nM LanthaScreen Eu-Anti GST antibody (ThermoFisher PV5595) were added. After one hour incubation at 25° C., the plates were read on a PHERAstar FS plate reader (BMG Labtech). Ki values were determined.
For `CNCc1cc(C)c(-c2cc3c(-c4ccc(S(C)(=O)=O)c(F)c4)n[nH]c3cc2C#N)c(F)c1` [Example 23, 3-(3-Fluoro-4-(methylsulfonyl)phenyl)-5-(2-fluoro-6-methyl-4-((methylamino)methyl)phenyl)-1H-indazole-6-carbonitrile], the Ki was no more than 100 nM. With `CNCc1cc(C)c(-c2cc3c(-c4cccc(N5CC[C@H](N(C)C)C5)n4)n[nH]c3cc2C#N)c(F)c1` [Example 47, 3-(6-((S)-3-(Dimethylamino)pyrrolidin-1-yl)pyridin-2-yl)-5-(2-fluoro-6-methyl-4-((methylamino)methyl)phenyl)-1H-indazole-6-carbonitrile] the Ki was no more than 100 nM. For `CNCc1cc(C)c(-c2cc3c(-c4ccc(OC)cc4)n[nH]c3cc2C#N)c(F)c1` [Example 13, 5-(2-Fluoro-6-methyl-4-((methylamino)methyl)phenyl)-3-(4-methoxyphenyl)-1H-indazole-6-carbonitrile], the Ki was no more than 100 nM. `CNCc1cc(C)c(-c2cc3c(-c4ccc(C(=O)NC(C)C)cc4Cl)n[nH]c3cc2C#N)c(F)c1` [Example 22, 3-Chloro-4-(6-cyano-5-(2-fluoro-6-methyl-4-((methylamino)methyl)phenyl)-1H-indazol-3-yl)-N-isopropylbenzamide] gave a Ki of no more than 100 nM. `CNCc1cc(C)c(-c2cc3c(-c4ccc(C5CC5)cc4)n[nH]c3cc2C#N)c(F)c1` [Example 15, 3-(4-Cyclopropylphenyl)-5-(2-fluoro-6-methyl-4-((methylamino)methyl)phenyl)-1H-indazole-6-carbonitrile] gave a Ki of no more than 100 nM.

Reference: patent US10722495B2, “Cyanoindazole compounds and uses thereof” (Incyte Corporation, priority 2017, dated 2020)
